Marks after values point to notes of the source that are not given here.
Columns and labels:
lactating cows = experiment: Methane content in respiratory gases of cows fed with melatonin; format: in vivo; conditions: fed 15 mg/kg/day
Protocol: In vivo experiment: twenty lactating cows with similar ages and body conditions were selected and randomly divided into two groups, a control group (fed with digestible paper only) and a melatonin-fed group (fed with melatonin wrapped in digestible paper, 15 mg/kg/day). Each group had 10 cows. The cows were fed every morning after milking. The treatment lasted for 21 days. The rumen fluids were collected with rumen collection tubes before the morning feeding on days 0, 7, 14 and 21, respectively. The concentrations of melatonin in the rumen fluids were measured by liquid chromatography tandem mass spectrometry (LC-MS/MS). The breathing gas of the cows was collected by a breathing gas collection system to detect the methane content therein. Meanwhile, the information (e.g., the health condition and milk quality) of the cows was also recorded to monitor the influence of the feeding experiment on the dairy production. Lactating cows were fed with melatonin powder of 15 mg/kg/day for 21 days. The respiratory gases were collected from each group at days 0, 7, 14 and 21 by using a respiratory gas collection system. The methane contents in the gases were detected by gas chromatography. […] In addition, this effect can be maintained for a longer period of time.

[1] = tested on: rumen fluids (in vitro rumen fluid fermentation); experiment: Volatile fatty acids (VFAs) from the in vitro rumen fluid fermentation, gas chromatography; format: cell-based, cows; conditions: 10^−3 mol/L melatonin, 48 h
Protocol: Rumen microorganisms can degrade plant fibers and produce VFAs, which in turn provide energy substances to the hosts. Thus, we analyzed the production of VFAs from the in vitro fermentation system. Based on the above experiments, we determined to in vitro treat the rumen fluids with 10^−3 mol/L of melatonin solution for 48 h. The levels of six VFAs (i.e., acetate (A), propionate (P), butyrate (B), isobutyrate, valerate and isovalerate), were detected in the in vitro rumen fluid fermentation solution by gas chromatography. […] In the rumens of ruminant animals, CO2 and H2 are mainly produced during the conversion of pyruvate into acetate and butyrate in glycolysis, and glucose can be generated from propionate. The A/P ratios of the two groups were compared, 3.00 for the control group and 3.372 for the melatonin group.

rumen microbial flora = experiment: Microorganism compositions of the in vitro rumen fermentation system (Alpha diversity, differential species analysis); format: cell-based, cows
Protocol: Alpha diversity can reflect the abundance and diversity of microbial flora. […] In order to clarify the species classification information of the microbial flora, the cluster analysis was performed to generate OTUs. FIGS. 5E-5F show the cluster diagram of the annotations at order level. […] There were significant differences in the relative abundance of Clostridiales, Bacteroides, Monadales, Desulfovibrionales and the like. The abundance of the microbial flora (e.g. Prevotella spp. and Succiniclasticum spp.) producing propionate and butyrate decreased, while the abundance of the microbial flora (e.g., Bifidobacterium) producing acetate increased. […] Each circle represents a species at the specific taxonomic level, and the size of the circle is positively correlated with the relative abundance of the species. The species with no significant differences are uniformly colored yellow, and the biomarkers for the species with differences are indicated with the color of the corresponding group.

[2] = Melatonin concentration in rumen fluids of cows fed with melatonin; format: in vivo; conditions: cows fed 15 mg/kg/day, days 7 to 21, FIG. 2
Protocol: In vivo experiment: twenty lactating cows with similar ages and body conditions were selected and randomly divided into two groups, a control group (fed with digestible paper only) and a melatonin-fed group (fed with melatonin wrapped in digestible paper, 15 mg/kg/day). Each group had 10 cows. The cows were fed every morning after milking. The treatment lasted for 21 days. The rumen fluids were collected with rumen collection tubes before the morning feeding on days 0, 7, 14 and 21, respectively. The concentrations of melatonin in the rumen fluids were measured by liquid chromatography tandem mass spectrometry (LC-MS/MS). The breathing gas of the cows was collected by a breathing gas collection system to detect the methane content therein. Meanwhile, the information (e.g., the health condition and milk quality) of the cows was also recorded to monitor the influence of the feeding experiment on the dairy production.
Twenty lactating cows with similar ages and body conditions were selected and randomly divided into two groups, a control group (CON, fed with digestible paper only) and a melatonin-fed group (MT, fed with melatonin wrapped in digestible paper). Each group had 10 cows. […] And the melatonin contents in the rumen fluids were determined by […]. […]

[3] = tested on: rumen fluids of cows (in vitro rumen fermentation system); experiment: In vitro fermentation of rumen fluids of cows, methane content by gas chromatography; format: cell-based; conditions: for methane production of the in vitro rumen fermentation system: FIG. 1
From the text: Rumen fluids were collected from fistulated cows before morning feeding, filtered through 4 layers of gauze, and then brought back to the laboratory by placing in a thermos flask. The experiment comprised a control group (CON) and melatonin groups (MT: 10^−3 mol/L, 10^−5 mol/L, 10^−7 mol/L). The cattle farm Total Mixed Rations (TMR) was used as the fermentation substrate, and artificial saliva was used as the matrix. Oxygen in the fermentation flasks was replaced with nitrogen. Then, the rumen fluids were incubated anaerobically at 39° C. in an incubator, which was connected to a gas bag to collect the fermentation gas. The methane content in the gas bag was detected by gas chromatography. In vitro experiment: melatonin was added during the in vitro simulation of rumen fermentation. The in vitro rumen fermentation system of 75 mL in each bottle comprises 0.5 g TMR powder, 50 mL of artificial saliva and 25 mL of filtered rumen fluid. The 10^−3 mol/L, 10^−5 mol/L and 10^−7 mol/L melatonin groups (melatonin dissolved in a small amount of DMSO and diluted to these concentrations with saline) and a control group (only solvent, i.e., a small amount of DMSO+saline) were set up separately. For each group, the samples were collected at the fermentation times 2 h, 4 h, 8 h, 24 h and 48 h. Three replicates were set for each sample. After fermenting anaerobically at 39° C., the gas bags and fermentation liquid were collected. Gas chromatography was used to detect the methane content in the gas of the gas bags. The obtained data were analyzed by one-way analysis of variance (One Way ANOVA) by means of SPSS® (Statistical Product and Service Solutions) statistical software. p<0.05 indicated significant difference and p<0.01 indicated extremely significant difference. The DunCan test was used for multiple comparisons. The results were expressed as means±SEM. Addition form I: adding melatonin powder (MT p) directly to the fermentation system to a final concentration of 2×10−3 mol/L. Addition form II: adding concentrated melatonin solution (MT s) of 10^−3 mol/L at 0 h and 24 h respectively.

[4] = tested on: archaea / methanogenic genera of the rumen microbial flora; experiment: Metagenome sequencing of in vitro fermentation rumen fluids (archaea); format: cell-based, cows; conditions: melatonin treatment vs control, FIG. 7B
Protocol: Metagenome sequencing was performed in order to further study the changes in the rumen microbial flora. In addition to the analysis of the gene table, the metagenome sequencing can also analyze the microbial compositions of the samples. Thus, it can obtain more information on the species, including phages, viruses, fungi, archaea and the like, other than bacteria. […] Due to the discovery of the methane-reducing effect of melatonin, we focused on the changes of archaea. 72 species archaea species, which had different abundance between the control and melatonin groups, were screened. […] Thus, melatonin can reduce the methane production by reducing the abundance of most methanogenic microbial flora.

## COc1ccc2[nH]cc(CCNC(C)=O)c2c1 [melatonin]
Lactating cows; day 14, FIG. 3
  methane production from the respiration of the cows: decreased significantly
Lactating cows; day 21, FIG. 3
  methane production from the respiration of the cows: decreased to a similar extent as at day 14
Lactating cows; from day 7, FIG. 3
  methane production from the respiration of the cows: decreased
[1]; FIG. 4
  level of acetic acid in rumen fluids: significantly reduced
  level of propionic acid in rumen fluids: significantly reduced
[1]; control group 3.00
  A/P ratio (acetate/propionate): 3.372
Rumen microbial flora; FIGS. 6A-6B
  abundance of the microbial flora producing acetate (e.g., Bifidobacterium): increased
  abundance of the microbial flora producing propionate and butyrate (e.g. Prevotella spp. and Succiniclasticum spp.): decreased
Rumen microbial flora; melatonin added to the fermentation system, FIGS. 5A-5D
  diversity of rumen microbial flora (Alpha diversity): increased
Rumen microbial flora; melatonin treatment, FIGS. 5E-5F
  compositions of the microbial flora (relative abundance of orders Clostridiales, Bacteroides, Monadales, Desulfovibrionales): significant changes
[2]
  melatonin concentrations in the rumen fluids: significantly increased
[3]; 10^−3 mol/L, 48 h, vs control
  methane production of the in vitro fermentation: significantly reduced
[3]; 10^−3 to 10^−7 mol/L, 4 h to 8 h
  methane production of the rumen fermentation liquid: reduced
[3]; 4 h, all concentrations of melatonin groups (10^−3 to 10^−7 mol/L)
  reduction of methane production as compared with the control group: about 15%
[3]; MT 10^−3 mol/L, fermentation time 2 h
  methane content (%): 0.99 ± 0.05%
[3]; MT 10^−3 mol/L, fermentation time 4 h
  methane content (%): 3.42 ± 0.13%
[3]; MT 10^−3 mol/L, fermentation time 8 h
  methane content (%): 4.43 ± 0.39%
[3]; MT 10^−3 mol/L, fermentation time 24 h
  methane content (%): 9.68 ± 0.07%
[3]; MT 10^−3 mol/L, fermentation time 48 h
  methane content (%): 10.79 ± 0.53^b %
[3]; MT 10^−5 mol/L, fermentation time 2 h
  methane content (%): 1.09 ± 0.06%
[3]; MT 10^−5 mol/L, fermentation time 4 h
  methane content (%): 3.47 ± 0.07%
[3]; MT 10^−5 mol/L, fermentation time 8 h
  methane content (%): 4.47 ± 0.39%
[3]; MT 10^−5 mol/L, fermentation time 24 h
  methane content (%): 10.4 ± 0.24%
[3]; MT 10^−5 mol/L, fermentation time 48 h
  methane content (%): 12.65 ± 0.45^a %
[3]; MT 10^−7 mol/L, fermentation time 2 h
  methane content (%): 1.03 ± 0.07%
[3]; MT 10^−7 mol/L, fermentation time 4 h
  methane content (%): 3.45 ± 0.05%
[3]; MT 10^−7 mol/L, fermentation time 8 h
  methane content (%): 5.16 ± 0.14%
[3]; MT 10^−7 mol/L, fermentation time 24 h
  methane content (%): 10.6 ± 0.44%
[3]; MT 10^−7 mol/L, fermentation time 48 h
  methane content (%): 11.25 ± 0.67^a %
[3]; addition form I: melatonin powder (MT p), final concentration 2×10−3 mol/L, 48 h
  methane production of the in vitro rumen fermentation system: significantly reduced
[3]; addition form II: concentrated melatonin solution (MT s) of 10^−3 mol/L at 0 h and 24 h, 48 h
  methane production of the in vitro rumen fermentation system: significantly reduced
[4]
  abundance of most methanogenic genera (Halobacterium, Methanoplanus, Methanococcoides, Methanoculleus, Methanothrix spp.): reduced

Source: patent US12427137B2, “Method for reducing methane production in animal stomach” (CHINA AGRICULTURAL UNIVERSITY, priority 2022, dated 2025)
